IC50 data for 31 compounds are collected here from US20110105509A1 (Wyeth, LLC, priority 2009, published 2011).

A word on the IC50: it is the midpoint of a concentration-inhibition curve. The low end stands for greater potency, the high end for weaker potency.

SMILES strings stand for the structures.

The target in the assay is T1, CRTH2 (Homo sapiens, UniProt Q9Y5Y4).
T1 construct: expressed in transfected cells; host or cells: CHO cells
T1 sequence (Q9Y5Y4 1-395): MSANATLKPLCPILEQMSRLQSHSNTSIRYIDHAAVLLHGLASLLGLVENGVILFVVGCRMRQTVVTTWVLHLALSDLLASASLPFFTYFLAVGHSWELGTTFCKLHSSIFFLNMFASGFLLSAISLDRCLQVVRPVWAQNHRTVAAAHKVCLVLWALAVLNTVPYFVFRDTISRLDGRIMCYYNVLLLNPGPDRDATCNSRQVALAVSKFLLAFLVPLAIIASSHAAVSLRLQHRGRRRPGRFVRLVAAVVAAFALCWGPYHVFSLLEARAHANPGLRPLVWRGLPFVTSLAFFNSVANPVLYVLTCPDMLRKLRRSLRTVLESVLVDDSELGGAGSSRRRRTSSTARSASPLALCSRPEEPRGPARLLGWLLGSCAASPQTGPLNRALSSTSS
Nature of the assay: FRET based competitive immunoassay (cAMP) in CRTH2 expressing CHO cells. In kind it is cell-based. To be noted: CRTH2 expressing CHO cells incubated with forskolin and PGD2; Eu3+ cryptate-labeled anti-cAMP and d2-labeled cAMP. The procedure: FRET Assay: To evaluate potency compounds were tested in a FRET based competitive immunoassay in which CRTH2 expressing CHO cells were incubated in the presence of forskolin and PGD2 along with Eu3+ cryptate-labeled anti-cAMP and d2-labeled cAMP.
`Cc1c(-c2nn(Cc3cc(F)ccc3F)c(=O)c3ccccc23)c2cc(Cl)ccc2n1CC(=O)O` [Example 59, 2-(5-Chloro-3-(3-(2,5-difluorobenzyl)-4-oxo-3,4-dihydrophthalazin-1-yl)-2-methyl-1H-indol-1-yl)acetic acid]: the IC50 turned out to be 12 nM.
To `Cc1c(-c2nn(CCOc3ccccc3)c(=O)c3ccccc23)c2cc(Cl)ccc2n1CC(=O)NS(C)(=O)=O` [Example 322, 2-(5-Chloro-2-methyl-3-(4-oxo-3-(2-phenoxyethyl)-3,4-dihydrophthalazin-1-yl)-1H-indol-1-yl)-N-(methylsulfonyl)acetamide] belongs greater than 1000 nM; to `Cc1c(Cc2ccc(=O)n(Cc3cc(F)ccc3F)c2)c2ccccc2n1CC(=O)O` [Example 25, 2-(3-((1-(2,5-Difluorobenzyl)-6-oxo-1,6-dihydropyridin-3-yl)methyl)-2-methyl-1H-indol-1-yl)acetic acid], 7 nM; to `Cc1c(-c2nn(C3CC3)c(=O)c3ccccc23)c2ccccc2n1CC(=O)O` [Example 178, 2-(3-(3-cyclopropyl-4-oxo-3,4-dihydrophthalazin-1-yl)-2-methyl-1H-indol-1-yl)-acetic acid], 215 nM.
For `Cc1c(Cc2ccc(=O)n(Cc3c(F)cccc3F)c2)c2ccccc2n1CC(=O)O` [Example 37, 2-(3-((1-(2,6-Difluorobenzyl)-6-oxo-1,6-dihydropyridin-3-yl)methyl)-2-methyl-1H-indol-1-yl)acetic acid], the IC50 came to 35 nM.
To `Cc1c(-c2nn(Cc3ccc(F)cc3F)c(=O)c3ccccc23)c2cc(F)ccc2n1CC(=O)O` [Example 64, 2-(3-(3-(2,4-difluorobenzyl)-4-oxo-3,4-dihydrophthalazin-1-yl)-5-fluoro-2-methyl-1H-indol-1-yl)acetic acid] belongs 9 nM; to `Cc1c(-c2nn(Cc3ccccc3C(F)(F)F)c(=O)c3ccccc23)c2cc(F)ccc2n1CC(=O)O` [Example 202, 2-(5-fluoro-2-methyl-3-(4-oxo-3-(2-(trifluoromethyl)benzyl)-3,4-dihydrophthalazin-1-yl)-1H-indol-1-yl)acetic acid], 9 nM; to `Cc1c(-c2ccc(=O)n(Cc3ccc(C(C)C)cc3)n2)c2cc(Cl)ccc2n1CC(=O)O` [Example 147, 2-(5-chloro-3-(1-(4-isopropylbenzyl)-6-oxo-1,6-dihydropyridazin-3-yl)-2-methyl-1H-indol-1-yl)acetic acid], 334 nM.
In the case of `Cc1c(-c2nn(CCOc3ccc(Cl)cc3)c(=O)c3ccccc23)c2cc(F)ccc2n1CC(=O)O` [Example 210, 2-(3-(3-(2-(4-chlorophenoxy)ethyl)-4-oxo-3,4-dihydrophthalazin-1-yl)-5-fluoro-2-methyl-1H-indol-1-yl)acetic acid] it was 2 nM; in that of `Cc1c(Cc2ccc(=O)n(Cc3ccccc3F)c2)c2cc(F)ccc2n1CC(=O)O` [Example 32, 2-(5-Fluoro-3-((1-(2-fluorobenzyl)-6-oxo-1,6-dihydropyridin-3-yl)methyl)-2-methyl-1H-indol-1-yl)acetic acid], 8 nM; in that of `Cc1c(-c2ccc(=O)n(Cc3ccccc3)c2)c2cc(Cl)ccc2n1CC(=O)O` [Example 264, 2-(3-(1-benzyl-6-oxo-1,6-dihydropyridin-3-yl)-5-chloro-2-methyl-1H-indol-1-yl)acetic acid], 10 nM.
Compound `Cc1c(Cc2ccc(=O)n(Cc3c(F)cccc3F)n2)c2cc(F)ccc2n1CC(=O)O` [Example 338, (3-{[1-(2,6-difluorobenzyl)-6-oxo-1,6-dihydropyridazin-3-yl]methyl}-5-fluoro-2-methyl-1H-indol-1-yl)acetic acid] returned an IC50 of 5 nM. This IC50 is about 2-fold lower than that of the compound before.
In turn, `Cc1c(Cc2ccc(=O)n(Cc3cccc(F)c3)c2)c2cc(F)ccc2n1CC(=O)O` [Example 39, 2-(5-Fluoro-3-((1-(3-fluorobenzyl)-6-oxo-1,6-dihydropyridin-3-yl)methyl)-2-methyl-1H-indol-1-yl)acetic acid] displayed an IC50 of 4 nM.
In the case of `Cc1c(-c2nn(C3CCCC3)c(=O)c3ccccc23)c2ccccc2n1CC(=O)O` [Example 179, 2-(3-(3-cyclopentyl-4-oxo-3,4-dihydrophthalazin-1-yl)-2-methyl-1H-indol-1-yl)-acetic acid] it was greater than 1000 nM; in that of `Cc1c(-c2nn(Cc3ccc(C(F)(F)F)c(F)c3)c(=O)c3ccccc23)c2cc(F)ccc2n1CC(=O)O` [Example 6, 2-(5-Fluoro-3-(3-(3-fluoro-4-(trifluoromethyl)benzyl)-4-oxo-3,4-dihydrophthalazin-1-yl)-2-methyl-1H-indol-1-yl)acetic acid], 23 nM; in that of `Cc1c(-c2ccc(=O)n(Cc3cccc(F)c3F)n2)c2ccccc2n1CC(=O)O` [Example 188, 2-(3-(1-(2,3-difluorobenzyl)-6-oxo-1,6-dihydropyridazin-3-yl)-2-methyl-1H-indol-1-yl)acetic acid], 227 nM.
Compound `Cc1c(Cc2ccc(=O)n(CC(F)(F)F)c2)c2cc(Cl)ccc2n1CC(=O)O` [Example 53, 2-(5-Chloro-2-methyl-3-((6-oxo-1-(2,2,2-trifluoroethyl)-1,6-dihydropyridin-3-yl)methyl)-1H-indol-1-yl)acetic acid] displayed an IC50 of 55 nM. Compared with the last compound, the IC50 is about 4.1-fold lower.
To `Cc1c(Cc2ccc(=O)n(Cc3ccc(F)c(F)c3)c2)c2cc(F)ccc2n1CC(=O)O` [Example 33, 2-(3-((1-(3,4-difluorobenzyl)-6-oxo-1,6-dihydropyridin-3-yl)methyl)-5-fluoro-2-methyl-1H-indol-1-yl)acetic acid] belongs 11 nM; to `Cc1c(-c2cn(Cc3ccccc3)c(=O)c3ccccc23)c2ccccc2n1CC(=O)O` [Example 247, 2-(3-(2-benzyl-1-oxo-1,2-dihydroisoquinolin-4-yl)-2-methyl-1H-indol-1-yl)-acetic acid], 12 nM; to `Cc1c(Cc2ccc(=O)n(CC(O)(C(F)(F)F)C(F)(F)F)n2)c2cc(F)ccc2n1CC(=O)O` [Example 201, [5-fluoro-2-methyl-3-({6-oxo-1-[3,3,3-trifluoro-2-hydroxy-2-(trifluoromethyl)-propyl]-1,6-dihydro-pyridazin-3-yl}methyl)-1H-indol-1-yl]acetic acid], 22 nM.
To `Cc1c(-c2ccc(=O)n(CC(C)C)n2)c2cc(F)ccc2n1CC(=O)O` [Example 333, 2-(5-fluoro-3-(1-isobutyl-6-oxo-1,6-dihydropyridazin-3-yl)-2-methyl-1H-indol-1-yl)acetic acid] belongs 111 nM; to `Cc1c(-c2ccc(=O)n(C)n2)c2cc(F)ccc2n1CC(=O)O` [Example 159, 2-(5-fluoro-2-methyl-3-(1-methyl-6-oxo-1,6-dihydropyridazin-3-yl)-1H-indol-1-yl)acetic acid], 2490 nM.
To `Cc1c(-c2cn(CCCC(F)(F)F)c(=O)c3ccccc23)c2cc(F)ccc2n1CC(=O)O` [Example 256, (5-fluoro-2-methyl-3-(1-oxo-2-(4,4,4-trifluorobutyl)-1,2-dihydroisoquinolin-4-yl)-1H-indol-1-yl)acetic acid] belongs 2 nM; to `Cc1c(-c2ccc(=O)n(Cc3cc(F)c(F)cc3F)c2)c2cc(F)ccc2n1CC(=O)O` [Example 271, 2-(5-Fluoro-2-methyl-3-(6-oxo-1-(2,4,5-trifluorobenzyl)-1,6-dihydropyridin-3-yl)-1H-indol-1-yl)acetic acid], 12 nM.
`Cc1c(-c2cn(CCC(C)(C)O)c(=O)c3ccccc23)c2cc(F)ccc2n1CC(=O)O` [Example 272, 2-(5-fluoro-3-(2-(3-hydroxy-3-methylbutyl)-1-oxo-1,2-dihydroisoquinolin-4-yl)-2-methyl-1H-indol-1-yl)acetic acid] had an IC50 of 23 nM.
To `Cc1c(-c2ccc(=O)n(Cc3c(F)cccc3F)c2)c2cc(Cl)ccc2n1CC(=O)O` [Example 291, 2-(5-chloro-3-(1-(2,6-difluorobenzyl)-6-oxo-1,6-dihydropyridin-3-yl)-2-methyl-1H-indol-1-yl)acetic acid] belongs 8 nM.
As for `Cc1c(Cc2ccc(=O)n(CCCC(F)(F)F)n2)c2cc(F)ccc2n1CC(=O)O` [Example 344, 2-(5-fluoro-2-methyl-3-((6-oxo-1-(4,4,4-trifluorobutyl)-1,6-dihydropyridazin-3-yl)-methyl)-1H-indol-1-yl)acetic acid], the IC50 was 17 nM.
For the compound `Cc1c(-c2ccc(=O)n(C)n2)c2ccccc2n1CC(=O)O` [Example 183, 2-(2-methyl-3-(1-methyl-6-oxo-1,6-dihydropyridazin-3-yl)-1H-indol-1-yl)-acetic acid], the IC50 worked out at 4990 nM.
To `Cc1c(Cc2ccc(=O)n(Cc3ccc(F)c(F)c3)c2)c2ccccc2n1CC(=O)O` [Example 30, 2-(3-((1-(3,4-Difluorobenzyl)-6-oxo-1,6-dihydropyridin-3-yl)methyl)-2-methyl-1H-indol-1-yl)acetic acid] belongs 153 nM; to `CCn1nc(-c2c(C)n(CC(=O)O)c3ccccc23)c2ccccc2c1=O` [Example 175, 2-(3-(3-ethyl-4-oxo-3,4-dihydrophthalazin-1-yl)-2-methyl-1H-indol-1-yl)-acetic acid], 175 nM; to `Cc1c(Cc2ccc(=O)n(Cc3ccccc3F)n2)c2ccccc2n1CC(=O)O` [Example 74, 2-(3-((1-(2-fluorobenzyl)-6-oxo-1,6-dihydropyridazin-3-yl)methyl)-2-methyl-1H-indol-1-yl)acetic acid], 2 nM.
